Article PMC11004395 (Saudi Pharmaceutical Journal : SPJ, 2024)

Target: bovine xanthine oxidase (BXO) (Bos taurus, UniProt P80457)
Test: XO inhibitory assay, double enzyme detection
Type: biochemical
Details: read-out: IC50 of moderately active compounds, moderate activities (Fig. 6)

bovine xanthine oxidase (BXO), sequence (P80457 whole entry): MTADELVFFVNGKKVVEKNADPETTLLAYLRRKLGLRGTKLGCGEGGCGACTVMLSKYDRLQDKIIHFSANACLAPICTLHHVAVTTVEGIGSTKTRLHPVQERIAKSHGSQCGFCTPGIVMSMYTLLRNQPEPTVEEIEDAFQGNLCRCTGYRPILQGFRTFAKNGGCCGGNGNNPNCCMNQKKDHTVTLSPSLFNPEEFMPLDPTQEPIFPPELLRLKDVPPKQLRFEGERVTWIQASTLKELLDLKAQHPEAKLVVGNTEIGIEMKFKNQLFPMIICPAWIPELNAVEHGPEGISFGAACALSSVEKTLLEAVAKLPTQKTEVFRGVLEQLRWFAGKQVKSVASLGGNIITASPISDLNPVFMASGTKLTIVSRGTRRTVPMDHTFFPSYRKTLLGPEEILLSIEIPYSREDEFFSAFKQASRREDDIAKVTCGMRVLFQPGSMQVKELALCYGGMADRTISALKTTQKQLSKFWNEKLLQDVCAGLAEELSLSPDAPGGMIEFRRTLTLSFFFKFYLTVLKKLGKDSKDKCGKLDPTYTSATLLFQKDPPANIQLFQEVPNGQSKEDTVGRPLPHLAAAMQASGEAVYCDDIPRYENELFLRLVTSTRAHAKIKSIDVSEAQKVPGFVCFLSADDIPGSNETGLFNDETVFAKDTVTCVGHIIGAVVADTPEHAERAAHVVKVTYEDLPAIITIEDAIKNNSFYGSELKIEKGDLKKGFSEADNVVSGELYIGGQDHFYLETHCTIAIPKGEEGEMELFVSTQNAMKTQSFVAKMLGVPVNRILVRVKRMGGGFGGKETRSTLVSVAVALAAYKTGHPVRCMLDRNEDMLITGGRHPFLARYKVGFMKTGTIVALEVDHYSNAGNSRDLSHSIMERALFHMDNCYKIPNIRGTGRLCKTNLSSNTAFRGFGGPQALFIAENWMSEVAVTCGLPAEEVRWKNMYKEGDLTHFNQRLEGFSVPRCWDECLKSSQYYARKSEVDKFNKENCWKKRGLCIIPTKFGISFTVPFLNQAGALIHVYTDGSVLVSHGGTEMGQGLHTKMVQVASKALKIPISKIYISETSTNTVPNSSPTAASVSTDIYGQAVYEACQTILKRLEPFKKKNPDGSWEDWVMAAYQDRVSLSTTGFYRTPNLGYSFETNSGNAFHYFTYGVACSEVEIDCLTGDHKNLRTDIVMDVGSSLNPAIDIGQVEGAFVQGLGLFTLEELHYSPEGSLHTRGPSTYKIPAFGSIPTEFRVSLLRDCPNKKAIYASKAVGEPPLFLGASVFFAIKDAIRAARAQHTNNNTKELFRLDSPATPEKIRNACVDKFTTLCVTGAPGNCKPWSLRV

- IC50: ≤ 263 µM
Structure (SMILES): O=[N+]([O-])c1ccc(C=Nn2c(Cn3nnc4ccccc43)n[nH]c2=S)cc1 [Compound 8, 3-((1H-Benzo[d][1,2,3]triazol-1-yl)methyl)-4-((4-nitrobenzylidene)amino)-1H-1,2,4-triazole-5(4H)-thione]
